Measurements published in US20190304569A1, “DRUG TARGETING OF HUMAN INDOLEAMINE 2,3-DIOXYGENASE” (Albert Einstein College of Medicine, priority 2016, published 2019).

Molecular target: human indoleamine 2,3-dioxygenase (hIDO) (Homo sapiens, UniProt P14902)
Experiment: hIDO enzyme activity in solution studies (binding to the Si site)
Type: biochemical
Conditions: for effect of binding to the Si site on the enzyme activity: solution data
Text: The existence of the Si site in hIDO was first proposed by us in 2009 based on solution studies (8). […] It is notable that for decades MitoC has been widely used as a chemotherapy drug for several types of cancer (9).

Chain of human indoleamine 2,3-dioxygenase (hIDO) (P14902 whole entry): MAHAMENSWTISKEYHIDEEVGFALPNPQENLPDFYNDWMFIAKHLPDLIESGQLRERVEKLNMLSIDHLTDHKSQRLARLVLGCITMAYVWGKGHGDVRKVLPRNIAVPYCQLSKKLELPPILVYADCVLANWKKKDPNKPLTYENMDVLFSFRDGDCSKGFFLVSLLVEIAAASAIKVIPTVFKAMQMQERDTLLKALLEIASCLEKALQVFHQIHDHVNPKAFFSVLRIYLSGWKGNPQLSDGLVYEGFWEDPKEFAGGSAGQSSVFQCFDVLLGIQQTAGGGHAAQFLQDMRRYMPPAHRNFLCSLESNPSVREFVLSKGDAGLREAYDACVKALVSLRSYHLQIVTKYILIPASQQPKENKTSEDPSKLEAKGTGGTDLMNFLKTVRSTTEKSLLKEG

| SMILES | effect of binding to the Si site on the enzyme activity | Ki (uncompetitive inhibition of hIDO by binding to the Si site) [µM] |
| --- | --- | --- |
| CO[C@@]12[C@H](COC(N)=O)C3=C(C(=O)C(C)=C(N)C3=O)N1C[C@@H]1N[C@@H]12 [MitoC, Mitomycin C] | inhibiting the enzyme activity | 25 |
| N[C@@H](Cc1c[nH]c2ccccc12)C(=O)O [Trp, tryptophan] | inhibits the enzyme activity | – |
